Measured values from patent US11337968B2, “Phenylquinoline compositions for treatment of ocular disorders and conditions” (The Board of Regents of the University of Oklahoma, priority 2016, dated 2022).
Entries after “also recorded” stand apart in the source; their conditions may differ.

Legend:
PPARα [1] = target: T1, PPARα (Homo sapiens, UniProt Q07869); assay: PPARα transcriptional activity in PPARα reporter Combo cells (luciferase); type: cell-based; design: host or cells: PPARα reporter Combo cells; settings: for PPARα transcriptional activity (luciferase), FIG. 1 and 2: 50 μM, PPARα reporter Combo cells; for PPARα transcriptional activity (luciferase), FIG. 1 and 2 / dose dependent effect on PPARα transcriptional activity, FIG. 3: 36 h; for dose dependent effect on PPARα transcriptional activity, FIG. 3: various concentrations up to 100 μM
T1 sequence (Q07869 1-468): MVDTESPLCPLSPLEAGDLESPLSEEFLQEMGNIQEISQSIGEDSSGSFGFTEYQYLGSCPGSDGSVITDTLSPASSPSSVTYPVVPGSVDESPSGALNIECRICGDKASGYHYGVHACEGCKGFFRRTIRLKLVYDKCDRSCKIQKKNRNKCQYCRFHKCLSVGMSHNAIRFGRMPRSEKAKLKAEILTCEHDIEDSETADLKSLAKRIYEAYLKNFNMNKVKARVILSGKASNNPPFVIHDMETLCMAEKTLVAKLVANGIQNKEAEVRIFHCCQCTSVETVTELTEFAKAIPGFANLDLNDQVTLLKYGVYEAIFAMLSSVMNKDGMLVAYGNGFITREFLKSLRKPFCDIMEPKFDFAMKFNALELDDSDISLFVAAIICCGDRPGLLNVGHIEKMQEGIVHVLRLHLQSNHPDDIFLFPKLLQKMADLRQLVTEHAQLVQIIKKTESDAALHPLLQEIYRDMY
Experimental: The PPARα reporter Combo cells were treated with the indicated compounds at concentrations of 50 μM for 36 h, and then luciferase activities were measured.
The PPARα reporter Combo cells were treated with indicated compounds at concentrations of 50 μM for 36 h, and then luciferase activities were measured.
Various phenylquinoline derivatives of the present disclosure were tested for their effects on PPARα transcriptional activity in PPARα reporter Combo cells, including NCI8 and compounds 1-13 as disclosed herein, as measured against the effect of Feno-FA.
Cells were treated with various compounds at concentrations of 50 μM for 36 h, after which luciferase activities were measured. […] Cells were treated with various compounds at concentrations of 50 μM for 36 h, after which luciferase activities were measured. […] The experiments were repeated as various increasing concentrations comparing the effects of Feno-FA (FIG. 4), NCI8 (FIG. 5), compound 2 (FIG. 6), and compound 8 (FIG. 7).

retinal leukostasis = assay: leukostasis assay in oxygen-induced retinopathy (OIR) model; type: in vivo, C57BL/6 mice; settings: OIR mice, 10 mg/kg/day i.p. P12 to P16, examined at P17, vs vehicle
ICAM-1, MCP-1, TNF-α = assay: retinal levels of inflammatory factors by Western blotting in OIR model; type: in vivo, C57BL/6 mice; settings: OIR mice, 10 mg/kg/day i.p. P12 to P16, Western blotting
[2] = system: human retinal Müller cells (MIO-M1); assay: TUNEL, palmitate-induced apoptosis in Müller cells; type: cell-based
[3] = system: retinal capillaries and pericytes; assay: retinal capillary degeneration and pericyte loss in streptozotocin-induced diabetic rats; type: in vivo; settings: i.p., 10 mg/kg/day, 3 weeks
[4] = system: retinal precursor cells (R28); assay: TUNEL, palmitate-induced apoptosis in retinal precursor cells; type: cell-based
PPARα [5] = target: T1, PPARα; assay: luciferase-based promoter assay of PPARα activation
Experimental: The activation of PPARα by NCI8 was measured by luciferase-based promoter assay. […] Student's T-test was used for statistical analysis.

VEGF = assay: expression of VEGF; settings: potency similar to or higher than fenofibrate
ARPE19 cells = assay: palmitate-induced cell death in ARPE19 cells; type: cell-based
[6] = system: human retinal capillary endothelial cells (HRCEC); assay: tube formation in HRCEC; type: cell-based
[7] = system: human retinal capillary endothelial cells (HRCEC); assay: endothelial cell migration in HRCEC; type: cell-based

Row | PPARα transcriptional activity (luciferase), FIG. 1 and 2 (PPARα [1]) | PPARα transcriptional activity at various increasing concentrations, FIG. 4-7 (PPARα [1]; compared with Feno-FA, NCI8, compound 8) | dose dependent effect on PPARα transcriptional activity, FIG. 3 (PPARα [1]) | EC50 (PPARα [5]) [µM] | SMILES | number of adherent leukocytes in the retinal vasculature (retinal leukostasis) (retinal leukostasis) | retinal level of ICAM-1 (ICAM-1, MCP-1, TNF-α) | retinal level of MCP-1 (ICAM-1, MCP-1, TNF-α) | retinal level of TNF-α (ICAM-1, MCP-1, TNF-α) | palmitate-induced apoptosis of human retinal Müller cells [2] | pericyte loss (pericyte numbers) ([3]; diabetic rats) | retinal capillary degeneration (numbers of acellular capillaries in the retina) ([3]; streptozotocin-induced diabetic rats) | palmitate-induced apoptosis of retinal precursor cells [4] | PPARα transcriptional activity (PPARα [5]; luciferase-based promoter assay) | expression of VEGF (VEGF) | RPE cell death induced by palmitate (ARPE19 cells) | HRCEC tube formation [6] | HRCEC migration [7] | concentration range of concentration-dependent inhibition of endothelial cell migration [7] [µM]
1 | highest agonistic activity | greatest agonistic activity | greatest activity |  | COc1ccc(-c2cc(C(=O)O)c3ccccc3n2)cc1OC [Compound 2, 2-(3,4-dimethoxyphenyl) quinoline-4-carboxylic acid] |  |  |  |  |  |  |  |  |  |  |  |  |  | 
2 | highest agonistic activity |  | greatest activity |  | O=C(O)c1cc(-c2ccccc2O)nc2ccccc12 [Compound 8, 2-(2-hydroxyphenyl) quinoline-4-carboxylic acid] |  |  |  |  |  |  |  |  |  |  |  |  |  | 
3 |  |  |  | 49.9 | Cc1c(Cl)ccc2c(C(=O)O)cc(-c3ccccc3)nc12 [NCI8, 7-chloro-8-methyl-2-phenylquinoline-4-carboxylic acid] | decreased; also recorded: significantly reduced | downregulated; also recorded: significantly down-regulated | downregulated; also recorded: significantly down-regulated | downregulated; also recorded: significantly down-regulated | protective effect | ameliorated; also recorded: significantly increased | ameliorated; also recorded: decreased | protective effect | activated PPARα transcriptional activity in a concentration-dependent manner; also recorded: Potent effects in enhancing transcriptional activities of PPARα | inhibited | protection of RPE cells from cell death | significantly inhibited; also recorded: higher potency than fenofibric acid | significantly inhibited | 50 to 200
